Assay [1] has as its system postsynaptic potentials evoked from the hippocampal CA1 region. The assay is described as follows: Postsynaptic potentials recorded in the CA1 pyramidal cell layer of rat hippocampal slices. The assay is classed as cell-based.
Assay [2] concerns the target T1, normal ACh receptors (Tetronarce californica, UniProt P02710+P02712+P02714+P02718).
T1 construct: expressed in transfected cells; host or cells: Xenopus oocytes
The assay is described as follows: Calcium permeability of normal ACh receptors in oocytes loaded with Calcium Green. It counts as cell-based. The conditions noted are these: normal solution + nefiracetam (1μM); ACh 100 µM; mean ± SD, n=7. The procedure:
An oocyte expressing normal ACh receptors was loaded with Calcium Green. Intracellular calcium ([Ca^2+]i) and evoked currents (IA) were recorded for each of the cases in which administration of ACh (100 µM) was carried out in a Ca^2+-free (extCa^2+(-)) extracellular solution or in an ordinary extracellular solution (Calcium Green TM-1 (Molecular Probes, Inc. USA) was injected to the oocytes). The Ca^2+ rise was normalized by Δ increase (δI) of intensity/base intensity/current amplitude (µA) obtained with calcium-free media.
In Table 15, each value represents the average from seven oocytes (SD; standard deviation). ACh-evoked currents in the Xenopus oocytes expression system are composed of acetylcholine-gated channel currents and calcium-dependent chloride currents. Nefiracetam had no effect on calcium permeability through the nACh receptor channel. (Table 15). The results from Examples 6a and 6b indicate that nefiracetam modulated acetylcholine-gated channel currents but not calcium-sensitive chloride (Cl^-) currents.

Assay [3] relates to glutamate release from hippocampal slices. The assay is classed as cell-based, guinea pig.

Like-named read-outs stand apart in the source and are kept apart here.

T1 sequence (P02710 25-461): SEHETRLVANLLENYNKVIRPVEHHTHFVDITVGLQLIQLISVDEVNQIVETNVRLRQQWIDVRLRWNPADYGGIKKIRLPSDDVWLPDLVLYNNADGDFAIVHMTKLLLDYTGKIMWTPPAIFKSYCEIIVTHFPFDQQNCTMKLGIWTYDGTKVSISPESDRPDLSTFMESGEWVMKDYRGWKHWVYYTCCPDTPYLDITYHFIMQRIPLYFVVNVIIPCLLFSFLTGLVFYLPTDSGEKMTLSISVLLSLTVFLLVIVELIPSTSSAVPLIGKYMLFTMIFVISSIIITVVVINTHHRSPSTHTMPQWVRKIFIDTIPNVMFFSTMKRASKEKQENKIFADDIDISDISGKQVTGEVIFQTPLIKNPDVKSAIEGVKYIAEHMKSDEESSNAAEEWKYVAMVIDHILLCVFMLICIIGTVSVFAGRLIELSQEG
T1 sequence (P02712 25-493): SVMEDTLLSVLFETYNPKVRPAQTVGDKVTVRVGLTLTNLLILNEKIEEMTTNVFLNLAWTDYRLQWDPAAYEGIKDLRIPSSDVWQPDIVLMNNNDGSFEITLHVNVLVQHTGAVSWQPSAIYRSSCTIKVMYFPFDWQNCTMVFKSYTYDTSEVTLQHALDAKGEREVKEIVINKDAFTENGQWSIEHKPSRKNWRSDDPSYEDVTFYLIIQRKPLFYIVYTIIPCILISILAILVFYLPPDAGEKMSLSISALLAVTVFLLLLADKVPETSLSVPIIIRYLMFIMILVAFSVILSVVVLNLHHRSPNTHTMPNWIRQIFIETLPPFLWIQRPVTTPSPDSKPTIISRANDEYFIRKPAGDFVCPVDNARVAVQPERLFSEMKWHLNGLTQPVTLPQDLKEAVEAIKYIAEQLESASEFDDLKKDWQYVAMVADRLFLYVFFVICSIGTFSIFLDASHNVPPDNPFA
T1 sequence (P02714 18-506): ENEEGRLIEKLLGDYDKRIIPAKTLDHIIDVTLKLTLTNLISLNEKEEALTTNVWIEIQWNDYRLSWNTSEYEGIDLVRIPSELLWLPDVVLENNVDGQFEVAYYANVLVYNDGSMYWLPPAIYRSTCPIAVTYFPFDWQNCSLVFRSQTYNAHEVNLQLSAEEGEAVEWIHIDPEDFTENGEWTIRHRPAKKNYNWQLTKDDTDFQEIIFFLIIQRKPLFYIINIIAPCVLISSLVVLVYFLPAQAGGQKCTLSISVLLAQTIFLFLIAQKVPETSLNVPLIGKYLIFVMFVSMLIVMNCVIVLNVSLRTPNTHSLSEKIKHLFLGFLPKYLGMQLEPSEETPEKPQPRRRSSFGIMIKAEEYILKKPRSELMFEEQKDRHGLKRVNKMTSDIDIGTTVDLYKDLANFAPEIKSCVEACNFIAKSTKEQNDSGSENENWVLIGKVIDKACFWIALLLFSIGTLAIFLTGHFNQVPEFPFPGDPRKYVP
T1 sequence (P02718 22-522): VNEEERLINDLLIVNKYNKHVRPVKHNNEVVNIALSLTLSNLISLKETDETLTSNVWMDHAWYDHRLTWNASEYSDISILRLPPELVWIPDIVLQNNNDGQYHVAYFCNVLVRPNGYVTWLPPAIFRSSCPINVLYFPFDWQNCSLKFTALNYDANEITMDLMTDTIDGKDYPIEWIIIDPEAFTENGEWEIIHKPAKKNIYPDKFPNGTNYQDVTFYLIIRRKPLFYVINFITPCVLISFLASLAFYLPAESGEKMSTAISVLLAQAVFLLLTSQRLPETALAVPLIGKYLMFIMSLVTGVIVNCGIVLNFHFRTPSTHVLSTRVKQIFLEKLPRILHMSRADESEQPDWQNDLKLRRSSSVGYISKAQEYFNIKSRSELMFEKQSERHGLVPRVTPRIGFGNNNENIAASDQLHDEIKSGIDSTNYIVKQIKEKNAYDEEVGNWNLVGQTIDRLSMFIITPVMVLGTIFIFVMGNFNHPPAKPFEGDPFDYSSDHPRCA

`Cc1cccc(C)c1NC(=O)CN1CCCC1=O` [nefiracetam, 2-oxo-1-pyrrolidinylacetic acid 2,6-dimethylanilide]: the “Postsynaptic potential (% of original amplitude)” value was found to be 50 ± 5% in assay [1] (Nefiracetam 0.01 µM, GF109203X(100nM), 10 min after treatment, n=5); 103 ± 8% in assay [1] (Nefiracetam 0.01 µM, H-89(1µM), 10 min after treatment, n=5); 108.8 ± 11.6% in assay [1] (Nefiracetam 1 µM, GF109203X(100nM), 10 min after treatment, n=5); 155 ± 8% in assay [1] (Nefiracetam 1 µM, H-89(1µM), 10 min after treatment, n=5). Moreover, the activity at 0.01 µM is 85 ± 5% in assay [1] (Rattus norvegicus, 10 min, Nefiracetam 0.01 µM, Control (no inhibitor), 10 min after treatment, n=5, read-out: Postsynaptic potential (% of original amplitude)) and 94 ± 5% in assay [1] (Rattus norvegicus, nefiracetam 0.01 µM, Mean ± SD, n = 5 to 7, read-out: Postsynaptic potential (% of original amplitude)). In addition, the activity at 1 µM was 143 ± 2% in assay [1] (Rattus norvegicus, 10 min, Nefiracetam 1 µM, Control (no inhibitor), 10 min after treatment, n=5, read-out: Postsynaptic potential (% of original amplitude)); roughly 150% in assay [1] (Rattus norvegicus, 1 h, 60 minutes after the 1 µM treatment, read-out: magnitude of maximum facilitation of the postsynaptic potentials); 156 ± 6% in assay [1] (Rattus norvegicus, nefiracetam 1 µM, Mean ± SD, n = 5 to 7, read-out: Postsynaptic potential (% of original amplitude)). The activity at 0.001 µM in assay [1] (Rattus norvegicus, nefiracetam 0.001 µM, Mean ± SD, n = 5 to 7, read-out: Postsynaptic potential (% of original amplitude)) is 95 ± 6%. Further, the activity at 0.1 µM in assay [1] (Rattus norvegicus, nefiracetam 0.1 µM, Mean ± SD, n = 5 to 7, read-out: Postsynaptic potential (% of original amplitude)) is 111 ± 9%. Moreover, the activity at 10 µM in assay [1] (Rattus norvegicus, read-out: Postsynaptic potential (% of original amplitude), nefiracetam 10 µM, Mean ± SD, n = 5 to 7) was found to be 144 ± 11%. The “concentrations giving short-term suppression of the postsynaptic potentials” value in assay [1] (biphasic effect, lower concentrations) is listed as no more than 0.1 µM. For the same molecule, the “normalized Ca^2+ rise (Δ increase of intensity / base intensity / current amplitude)” value in assay [2] stood at 6.6 ± 1.4. Also, in assay [3] (1 µM, depolarization by electrical stimulation), the “effect on glutamate release” value is on record as “significantly increased”. Moreover, the “Amount of released glutamate” value in assay [3] (St (ES+) electrical stimulation, nefiracetam 1 µM, tetrodotoxin 0.5 µM, α-bungarotoxin 50 nM, mecamylamine 3 µM) is on record as 3.23 ± 0.5 (a) nmol/mg protein/10min.

The values above are taken from patent EP1022029A1, “NOOTROPIC AGENT” (priority 1997, dated 1999).
